Laboratory results published in patent publication US9156877B2, “17-hydroxy-17-pentafluorethyl-estra-4,9(10)-dien-11-benzylidene derivatives, methods for the production thereof and use thereof for treating diseases” (Bayer Intellectual Property GmbH, priority 2009, dated 2015).

What was measured:
[1] = target: T1, human progesterone receptor A (Homo sapiens, UniProt P06401); test: Progesterone receptor-antagonistic action in stably transfected SK-N-MC cells with MMTV-LUC reporter (PR-A); format: cell-based; conditions: antagonistic potency against 0.1 nmol/l promegestone, 24 hours, luciferase
T1 construct: expressed in transfected cells; host or cells: SK-N-MC human neuroblastoma cells, stably transfected with pRChPR-A-neo and pMMTV-LUC
T1 sequence (P06401 1-769 isoform P06401-2): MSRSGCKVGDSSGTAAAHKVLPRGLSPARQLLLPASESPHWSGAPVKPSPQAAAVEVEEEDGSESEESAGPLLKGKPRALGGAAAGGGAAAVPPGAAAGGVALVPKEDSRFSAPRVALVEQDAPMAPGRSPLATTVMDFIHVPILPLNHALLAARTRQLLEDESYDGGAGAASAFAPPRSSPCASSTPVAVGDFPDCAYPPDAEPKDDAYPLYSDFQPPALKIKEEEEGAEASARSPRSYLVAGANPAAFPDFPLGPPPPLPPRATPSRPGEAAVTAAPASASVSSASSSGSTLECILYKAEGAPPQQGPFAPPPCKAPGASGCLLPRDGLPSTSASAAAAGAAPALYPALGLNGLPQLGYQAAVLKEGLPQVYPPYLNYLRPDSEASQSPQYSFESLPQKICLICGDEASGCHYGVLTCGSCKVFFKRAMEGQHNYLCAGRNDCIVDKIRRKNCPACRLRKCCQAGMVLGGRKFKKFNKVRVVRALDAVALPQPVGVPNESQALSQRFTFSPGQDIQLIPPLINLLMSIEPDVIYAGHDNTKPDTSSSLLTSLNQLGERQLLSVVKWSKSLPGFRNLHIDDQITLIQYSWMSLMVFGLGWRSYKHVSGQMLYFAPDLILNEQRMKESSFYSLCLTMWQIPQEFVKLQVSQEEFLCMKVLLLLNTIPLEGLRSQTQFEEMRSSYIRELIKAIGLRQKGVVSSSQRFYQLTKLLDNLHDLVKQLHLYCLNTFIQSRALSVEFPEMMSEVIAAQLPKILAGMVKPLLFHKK
Experimental: (§1) Determination of Progesterone Receptor-Antagonistic Action in Stable Transfectants of Human Neuroblastoma Cells (SK-N-MC Cells) with the Human Progesterone A or Progesterone B Receptor and an MN-LUC Reporter Construct
(§2) SK-N-MC cells (human neuroblastoma cells) which have been stably transfected with plasmids expressing the human progesterone receptor B (pRChPR-B-neo) or the human progesterone receptor A (pRChPR-A-neo) and a reporter construct (pMMTV-LUC) were incubated for 24 hours either in the absence (negative control) or in the presence of ascending amounts of the particular test compound (0.01 nmol/l, 0.1 nmol/l, 1 nmol/l, 10 nmol/l, 100 nmol/l and […]), in order to determine the agonistic efficacy. As a positive control of the reporter gene induction, the cells were treated with the synthetic gestagen promegestone (0.01 nmol/l, 0.1 nmol/l, 1 nmol/l, 10 nmol/l, 100 nmol/l and […]). To determine the antagonistic activity, the cells were treated with 0.1 nmol/l promegestone and additionally with ascending amounts of the particular test compound (0.01 nmol/l, 0.1 nmol/l, 1 nmol/l, 10 nmol/l, 100 nmol/l and […]). The activity of the reporter gene LUC (LUC=luciferase) was determined in the cell lysates and measured as RLU (relative light units). All measurements are reported as % efficacy and as EC50 and IC50 concentrations.

[2] = target: T2, human progesterone receptor B (Homo sapiens, UniProt P06401); test: Progesterone receptor-antagonistic action in stably transfected SK-N-MC cells with MMTV-LUC reporter (PR-B); format: cell-based; conditions: antagonistic potency against 0.1 nmol/l promegestone, 24 hours, luciferase
T2 construct: expressed in transfected cells; host or cells: SK-N-MC human neuroblastoma cells, stably transfected with pRChPR-B-neo and pMMTV-LUC
T2 sequence (P06401 1-933): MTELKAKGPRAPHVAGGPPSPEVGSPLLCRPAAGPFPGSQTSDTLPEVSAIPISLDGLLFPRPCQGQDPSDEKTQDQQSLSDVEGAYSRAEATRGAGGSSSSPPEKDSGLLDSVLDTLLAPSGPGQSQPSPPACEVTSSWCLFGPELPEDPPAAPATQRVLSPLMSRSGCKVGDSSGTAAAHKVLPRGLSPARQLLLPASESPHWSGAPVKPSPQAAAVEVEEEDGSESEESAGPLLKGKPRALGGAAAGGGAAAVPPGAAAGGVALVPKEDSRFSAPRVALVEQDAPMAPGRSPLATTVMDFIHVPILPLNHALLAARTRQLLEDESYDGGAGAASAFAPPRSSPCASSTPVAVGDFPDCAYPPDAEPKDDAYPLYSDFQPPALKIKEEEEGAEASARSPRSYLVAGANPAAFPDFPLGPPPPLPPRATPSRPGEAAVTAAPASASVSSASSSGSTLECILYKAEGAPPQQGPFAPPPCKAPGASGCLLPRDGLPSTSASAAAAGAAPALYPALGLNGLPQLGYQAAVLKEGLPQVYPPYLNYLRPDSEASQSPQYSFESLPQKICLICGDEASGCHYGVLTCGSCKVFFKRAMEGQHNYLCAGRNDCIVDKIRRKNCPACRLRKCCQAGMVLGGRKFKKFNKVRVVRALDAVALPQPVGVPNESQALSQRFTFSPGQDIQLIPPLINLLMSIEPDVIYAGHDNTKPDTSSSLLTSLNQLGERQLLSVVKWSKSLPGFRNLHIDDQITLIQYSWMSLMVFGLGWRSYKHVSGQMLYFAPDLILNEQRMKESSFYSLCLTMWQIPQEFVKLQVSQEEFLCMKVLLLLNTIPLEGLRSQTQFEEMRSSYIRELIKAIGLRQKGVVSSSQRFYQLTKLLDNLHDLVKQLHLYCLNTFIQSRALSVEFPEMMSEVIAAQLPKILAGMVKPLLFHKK
Experimental: as §1, §2

| IC50 [1] [nM] | IC50 [2] [nM] | Compound |
| --- | --- | --- |
| 0.13 | 0.26 | CCOC(=O)/C=C/c1ccc([C@H]2C[C@@]3(C)[C@@H](CC[C@@]3(O)C(F)(F)C(F)(F)F)[C@@H]3CCC4=CC(=O)CCC4=C32)cc1 [Example 12, (E)-3-[4-((8S,11R,13S,14S,17S)-17-hydroxy-13-methyl-3-oxo-17-pentafluoroethyl-2,3,6,7,8,11,12,13,14,15,16,17-dodecahydro-1H-cyclopenta[a]phenanthren-11-yl)phenyl]acrylic acid ethyl ester] |
| 0.1 | 0.1 | CCOC(=O)CNC(=O)NC/C=C/c1ccc([C@H]2C[C@@]3(C)C(CC[C@@]3(O)C(F)(F)C(F)(F)F)C3CCC4=CC(=O)CCC4=C32)cc1 (stereo partly drawn) [Example 51, 3-(3-{(E)-3-[4-((8S,11R,13S,14S,17S)-17-hydroxy-13-methyl-3-oxo-17-pentafluoroethyl-2,3,6,7,8,11,12,13,14,15,16,17-dodecahydro-1H-cyclopenta[a]phenanthren-11-yl)phenyl]allyl}ureido)acetic acid ethyl ester] |
| 3 | 3 | C=Cc1cccc([C@H]2C[C@@]3(C)[C@@H](CC[C@@]3(O)C(F)(F)C(F)(F)F)[C@@H]3CCC4=CC(=O)CCC4=C32)c1 [Example 19, (8S,11R,13S,14S,17S)-17-hydroxy-13-methyl-17-pentafluoroethyl-11-(3-vinylphenyl)-1,2,6,7,8,11,12,13,14,15,16,17-dodecahydrocyclopenta[a]phenanthren-3-one] |
| 0.09 | 0.1 | CC(C)CO/N=C/c1ccc([C@H]2C[C@@]3(C)[C@@H](CC[C@@]3(O)C(F)(F)C(F)(F)F)[C@@H]3CCC4=CC(=O)CCC4=C32)cc1 [Example 38, 4-((8S,11R,13S,14S,17S)-17-hydroxy-13-methyl-3-oxo-17-pentafluoroethyl-2,3,6,7,8,11,12,13,14,15,16,17-dodecahydro-1H-cyclopenta[a]phenanthren-11-yl)benzaldehyde O-isobutyl oxime] |
| 9 | 11 | C=C(C)c1cccc([C@H]2C[C@@]3(C)[C@@H](CC[C@@]3(O)C(F)(F)C(F)(F)F)[C@@H]3CCC4=CC(=O)CCC4=C32)c1 [Example 20, (8S,11R,13S,14S,17S)-17-hydroxy-11-(3-isopropenylphenyl)-13-methyl-17-pentafluoroethyl-1,2,6,7,8,11,12,13,14,15,16,17-dodecahydrocyclopenta[a]phenanthren-3-one] |
| 0.09 | 0.08 | COC(=O)c1cccc(/C=C/c2ccc([C@H]3C[C@@]4(C)[C@@H](CC[C@@]4(O)C(F)(F)C(F)(F)F)[C@@H]4CCC5=CC(=O)CCC5=C43)cc2)c1 [Example 30, 3-{(E)-2-[4-((8S,11R,13S,14S,17S)-17-hydroxy-13-methyl-3-oxo-17-pentafluoroethyl-2,3,6,7,8,11,12,13,14,15,16,17-dodecahydro-1H-cyclopenta[a]phenanthren-11-yl)phenyl]vinyl}benzoic acid methyl ester] |
| 0.8 | 0.3 | CC(C)(C)c1ccc(NC(=O)NC/C=C/c2ccc([C@H]3C[C@@]4(C)C(CC[C@@]4(O)C(F)(F)C(F)(F)F)C4CCC5=CC(=O)CCC5=C43)cc2)cc1 (stereo partly shown) [Example 47] |
| 0.1 | 0.2 | C[C@]12C[C@H](c3ccc(/C=C/CNC(=O)Nc4ccc(Cl)cc4)cc3)C3=C4CCC(=O)C=C4CC[C@H]3[C@@H]1CC[C@@]2(O)C(F)(F)C(F)(F)F [Example 53, 1-(4-chlorophenyl)-3-{(E)-3-[4-((8S,11R,13S,14S,17S)-17-hydroxy-13-methyl-3-oxo-17-pentafluoroethyl-2,3,6,7,8,11,12,13,14,15,16,17-dodecahydro-1H-cyclopenta[a]phenanthren-11-yl)phenyl]allyl}urea] |
